Results reported in article PMC8147254, “Efflux at the Blood-Brain Barrier Reduces the Cerebral Exposure to Ochratoxin A, Ochratoxin α, Citrinin and Dihydrocitrinone” (Toxins, 2021).

System: PBCEC
Assay: not given
Format: cell-based, porcine
Conditions: pig
Experimental: In order to study the barrier integrity PBCEC were incubated with 1 µM OTA, OTα, CIT and DHCIT in the apical compartment (blood side) of Transwell® filter inserts for 48 h. The TEER values as well as the electrical capacitance (cCL) were monitored by cellular impedance spectroscopy (Figure 4A,B). As a negative control the permeability of […] was measured after 48 h. Sucrose is not transported by any cellular transport protein and represents a marker for an intact BBB. […]
6.1. Cellular impedance spectroscopy […]
6.2. […] permeability
As additional method to control the barrier tightness the permeability of radiolabeled […]
across the Transwell® inserts was measured. Since 14C sucrose is not transported or taken up by endothelial cells, the permeability of 14C sucrose is an appropriate parameter for barrier integrity.
After 48 h exposure to the mycotoxins 1 μ Ci (37 kBq) […] (Amersham, Buckinghamshire, UK) was applied to the apical compartment. Samples from the basolateral compartment were collected after 10, 20, 30, 40, 60 and 80 min, diluted in scintillation fluid and analyzed with a scintillation counter as previously described.

Compound	permeability pc (14C sucrose) after mycotoxin incubation
CC1=C2C(=CO[C@H](C)[C@H]2C)C(O)=C(C(=O)O)C1=O [CIT, Citrinin]	0.50 ± 0.33 10^−6 cm/s
Cc1c(O)c(C(=O)O)c(O)c2c1[C@H](C)[C@@H](C)OC2=O [DHCIT, dihydrocitrinone]	0.38 ± 0.17 10^−6 cm/s
C[C@@H]1Cc2c(Cl)cc(C(=O)N[C@@H](Cc3ccccc3)C(=O)O)c(O)c2C(=O)O1 [OTA, Ochratoxin A]	0.81 ± 0.17 10^−6 cm/s
C[C@@H]1Cc2c(Cl)cc(C(=O)O)c(O)c2C(=O)O1 [OTα, ochratoxin α]	0.56 ± 0.24 10^−6 cm/s

System: not listed separately
Assay: in vitro
Conditions: pig
Experimental: (§1) For transfer studies from the apical (blood) side to the basolateral compartment (brain side), 1 µM of mycotoxins were applied on the apical side of the Transwell® filter compartment. Over 48 h, OTA, OTα, CIT, and DHCIT were quantified at eight points in time in both compartments by HPLC-MS/MS in order to investigate the transfer and potential metabolism of the applied compounds.
(§2) Both devices were operated with Analyst 1.6.2 software (SCIEX Germany GmbH, Darmstadt, Germany). Chromatographic separation of OTA, OTα, CIT, and DHCIT was performed on a 100 mm × 2.1 mm Halo RP-Amide 2.7 µm column (Advanced Materials Technology, Wilmington, NC, USA) equipped with an Ultra filter (KrudKatcher, Phenomenex, Aschaffenburg, Germany) at 40 °C using a gradient of ACN+1% formic acid (FA) (Solvent A) and H2O+1% FA (solvent B) at a flow rate of 250 µL/min. […] Afterwards, the column was re-equilibrated for 4 min. An injection volume of 5 µL was used. A diverter valve was used to exclude the first 5 min of the HPLC run from the mass spectrometer and reduce matrix contamination. The Ion Drive Turbo V ion source was heated to 400 °C. Further conditions were curtain gas (CUR) 35 psi N2, nebuliser gas (GS1) 45 psi N2, heater gas (GS2) 55 psi N2, and ion spray voltage 4500 V in positive and −4500 V in negative ionization mode; each MRM transition was monitored for 5 ms. Detailed mass spectrometer settings are given in the Supplementary Materials of this article.
(§3) The permeability coefficients p were calculated according to (1) as described in detail in [15]:(1) p[cm/s]=cbas[%]/[…]·Vap[cm³]/A[cm^2]·t[s] where cbas is the mycotoxin concentration in the basolateral compartment at a certain time t [s]. The initial concentration in the apical compartment is c0 h,ap and Vap is the volume of the compartment at the beginning of the experiment. A is the area of the filter insert membrane. The resulting permeability of the mycotoxin across the cell monolayer pc was calculated as shown in (2):(2) 1/pc [cm/s]=1/pc+f [cm/s][…]1/pf[cm/s] where pc+f is the permeability coefficient of the transfer study and pf the permeability coefficient of the cell-free polycarbonate filter membrane. […]
(§4) serum) and centrifugation at 220 × g at 20 °C for 10 min the supernatant was removed. Fresh complete medium was added and the cell pellet was gently resuspended twice to a final concentration of 150,000 cells/mL. 100 μ L of this suspension were seeded on rat‐tail collagen coated 96‐well plates (rat‐ tail collagen was isolated as described previously) resulting in 15,000 cells per well. PBCEC were incubated at 37 °C, 5% CO2 in a saturated humidified atmosphere. After 48 h the medium was replaced with serum‐free medium (DMEM/Ham’s F‐12 with 100 U/mL penicillin, 100 μg/mL […]
(§5) Aldrich, Steinheim, Germany)). […]
(§6) The thawing and seeding procedure was performed according to the protocol already described for the viability test as previously published. Instead of using 96‐well plates, 500 μL PBCEC suspension (500,000 cells/mL) were seeded in the upper (apical) compartment of a 12‐well Transwell®

Compound	Papp A→B [×10⁻⁶ cm/s]
CC1=C2C(=CO[C@H](C)[C@H]2C)C(O)=C(C(=O)O)C1=O [CIT, Citrinin]	1.79 ± 0.4
Cc1c(O)c(C(=O)O)c(O)c2c1[C@H](C)[C@@H](C)OC2=O [DHCIT, dihydrocitrinone]	0.51 ± 0.14
C[C@@H]1Cc2c(Cl)cc(C(=O)N[C@@H](Cc3ccccc3)C(=O)O)c(O)c2C(=O)O1 [OTA, Ochratoxin A]	0.38 ± 0.08
C[C@@H]1Cc2c(Cl)cc(C(=O)O)c(O)c2C(=O)O1 [OTα, ochratoxin α]	0.68 ± 0.15

System: PBCEC monolayer
Assay: in vitro
Conditions: 1 µM (760 pmol) apical, 48 h, n = 9
Experimental: as §1, §2, §3, §4, §5, §6

Compound	amount in the apical compartment after 48 h, of initially applied amount [%]	amount transferred to the basolateral compartment after 48 h, of initially applied amount [%]
CC1=C2C(=CO[C@H](C)[C@H]2C)C(O)=C(C(=O)O)C1=O [CIT, Citrinin]	67 ± 3	40 ± 4
Cc1c(O)c(C(=O)O)c(O)c2c1[C@H](C)[C@@H](C)OC2=O [DHCIT, dihydrocitrinone]	87 ± 13	14 ± 3
C[C@@H]1Cc2c(Cl)cc(C(=O)N[C@@H](Cc3ccccc3)C(=O)O)c(O)c2C(=O)O1 [OTA, Ochratoxin A]	96 ± 7	14 ± 3
C[C@@H]1Cc2c(Cl)cc(C(=O)O)c(O)c2C(=O)O1 [OTα, ochratoxin α]	86 ± 6	19 ± 4

Same assay, conditions: pig

Compound	permeability relative to the negative control 14C sucrose (factor)
CC1=C2C(=CO[C@H](C)[C@H]2C)C(O)=C(C(=O)O)C1=O [CIT, Citrinin]	ca. 4

System: PBCEC monolayer
Assay: not given
Format: in vitro ADME, porcine
Conditions: 200 nM in both compartments, 100 µM probenecid
Experimental: To analyse any active transport the mycotoxins were applied in the apical and basolateral compartments in equimolar concentrations of 200 nM. In a second set of experiments, 100 µM probenecid were added to both compartments 1 h before mycotoxin incubation in order to elucidate the effects of the OAT transport proteins. […] The mycotoxin concentrations were analysed as described above by HPLC-MS/MS.
For active transport studies, the cells were treated as described for transfer studies, with the only difference being that the compounds were applied on the apical and basolateral side in equimolar 200 nM concentrations (see Supplementary Materials). To investigate whether probenecid has an effect on the active transfer of the mycotoxins via OAT, 100 µM probenecid was applied to the apical and basolateral compartment 1 h before mycotoxin application and maintained until the end of the experiment.
Afterwards, the column was re-equilibrated for 4 min. An injection volume of 5 µL was used.
5. Active transport studies
To study the active transfer properties, the cells were treated in the same manner as for the normal transfer studies, but the mycotoxins were incubated on the apical and basolateral side in equimolar 200 nM concentrations as previously described. To investigate whether probenecid has an effect on the active transfer of the mycotoxins via OAT, 100 μM probenecid was applied to the apical and basolateral compartment 1 h before mycotoxin application and maintained until the end […]
after applying the mycotoxins using HPLC‐MS/MS. […]

Compound	effect of probenecid on the enrichment in the apical compartment
CC1=C2C(=CO[C@H](C)[C@H]2C)C(O)=C(C(=O)O)C1=O [CIT, Citrinin]	some effect of probenecid cannot be dismissed
C[C@@H]1Cc2c(Cl)cc(C(=O)N[C@@H](Cc3ccccc3)C(=O)O)c(O)c2C(=O)O1 [OTA, Ochratoxin A]	minor almost negligible effect
C[C@@H]1Cc2c(Cl)cc(C(=O)O)c(O)c2C(=O)O1 [OTα, ochratoxin α]	weak

Same assay, conditions: 200 nM in both compartments, 100 µM probenecid from 1 h before, n = 3

Compound	concentration in the apical compartment after 48 h [nM]	concentration in the basolateral compartment after 48 h [nM]
CC1=C2C(=CO[C@H](C)[C@H]2C)C(O)=C(C(=O)O)C1=O [CIT, Citrinin]	205 ± 21	180 ± 12
Cc1c(O)c(C(=O)O)c(O)c2c1[C@H](C)[C@@H](C)OC2=O [DHCIT, dihydrocitrinone]	250 ± 15	178 ± 15
C[C@@H]1Cc2c(Cl)cc(C(=O)N[C@@H](Cc3ccccc3)C(=O)O)c(O)c2C(=O)O1 [OTA, Ochratoxin A]	292 ± 28	224 ± 6
C[C@@H]1Cc2c(Cl)cc(C(=O)O)c(O)c2C(=O)O1 [OTα, ochratoxin α]	236 ± 16	187 ± 1

Same assay, conditions: 200 nM in both compartments, without probenecid, n = 3

Compound	concentration in the apical compartment after 48 h [nM]	concentration in the basolateral compartment after 48 h [nM]
CC1=C2C(=CO[C@H](C)[C@H]2C)C(O)=C(C(=O)O)C1=O [CIT, Citrinin]	266 ± 18	182 ± 1
Cc1c(O)c(C(=O)O)c(O)c2c1[C@H](C)[C@@H](C)OC2=O [DHCIT, dihydrocitrinone]	278 ± 7	186 ± 6
C[C@@H]1Cc2c(Cl)cc(C(=O)N[C@@H](Cc3ccccc3)C(=O)O)c(O)c2C(=O)O1 [OTA, Ochratoxin A]	275 ± 32	206 ± 4
C[C@@H]1Cc2c(Cl)cc(C(=O)O)c(O)c2C(=O)O1 [OTα, ochratoxin α]	268 ± 10	194 ± 5

Same assay, conditions: 200 nM in both compartments; data not shown

Compound	mycotoxin amounts extracted from the cells and filter membranes, of the initially applied amount
CC1=C2C(=CO[C@H](C)[C@H]2C)C(O)=C(C(=O)O)C1=O [CIT, Citrinin]	below 1%
Cc1c(O)c(C(=O)O)c(O)c2c1[C@H](C)[C@@H](C)OC2=O [DHCIT, dihydrocitrinone]	below 1%
C[C@@H]1Cc2c(Cl)cc(C(=O)N[C@@H](Cc3ccccc3)C(=O)O)c(O)c2C(=O)O1 [OTA, Ochratoxin A]	below 1%
C[C@@H]1Cc2c(Cl)cc(C(=O)O)c(O)c2C(=O)O1 [OTα, ochratoxin α]	below 1%

System: PBCEC
Assay: not given
Conditions: 10 nM, 48 h, CCK-8, n = 18

Compound	dehydrogenase activity compared to the negative control [%]
C[C@@H]1Cc2c(Cl)cc(C(=O)N[C@@H](Cc3ccccc3)C(=O)O)c(O)c2C(=O)O1 [OTA, Ochratoxin A]	112 ± 12

Same assay, conditions: up to 10 µM

Compound	cytotoxic or barrier-weakening (adverse) effects
CC1=C2C(=CO[C@H](C)[C@H]2C)C(O)=C(C(=O)O)C1=O [CIT, Citrinin]	no adverse effects
Cc1c(O)c(C(=O)O)c(O)c2c1[C@H](C)[C@@H](C)OC2=O [DHCIT, dihydrocitrinone]	no adverse effects
C[C@@H]1Cc2c(Cl)cc(C(=O)O)c(O)c2C(=O)O1 [OTα, ochratoxin α]	no adverse effects

Same assay, conditions: up to 10 µM, 48 h

Compound	effect on cellular viability
CC1=C2C(=CO[C@H](C)[C@H]2C)C(O)=C(C(=O)O)C1=O [CIT, Citrinin]	neither altered the cellular viability
Cc1c(O)c(C(=O)O)c(O)c2c1[C@H](C)[C@@H](C)OC2=O [DHCIT, dihydrocitrinone]	neither altered the cellular viability
C[C@@H]1Cc2c(Cl)cc(C(=O)O)c(O)c2C(=O)O1 [OTα, ochratoxin α]	neither altered the cellular viability

System: PBCEC
Assay: not given
Conditions: 100 nM and lower concentrations, 48 h

Compound	cellular morphology
C[C@@H]1Cc2c(Cl)cc(C(=O)N[C@@H](Cc3ccccc3)C(=O)O)c(O)c2C(=O)O1 [OTA, Ochratoxin A]	no morphological changes

Same assay, conditions: 10 µM, 48 h

Compound	cellular morphology
CC1=C2C(=CO[C@H](C)[C@H]2C)C(O)=C(C(=O)O)C1=O [CIT, Citrinin]	unremarkable
Cc1c(O)c(C(=O)O)c(O)c2c1[C@H](C)[C@@H](C)OC2=O [DHCIT, dihydrocitrinone]	unremarkable
C[C@@H]1Cc2c(Cl)cc(C(=O)N[C@@H](Cc3ccccc3)C(=O)O)c(O)c2C(=O)O1 [OTA, Ochratoxin A]	very similar morphological changes of the PBCEC as they were observed for 10 µM T-2 toxin
C[C@@H]1Cc2c(Cl)cc(C(=O)O)c(O)c2C(=O)O1 [OTα, ochratoxin α]	unremarkable

System: not listed separately
Assay: in vitro
Conditions: pig
Remark: another data set of the same source

Compound	viability at 1 µM [%]	viability at 10 µM [%]
CC1=C2C(=CO[C@H](C)[C@H]2C)C(O)=C(C(=O)O)C1=O [CIT, Citrinin]	106 ± 13	134 ± 13
Cc1c(O)c(C(=O)O)c(O)c2c1[C@H](C)[C@@H](C)OC2=O [DHCIT, dihydrocitrinone]	96 ± 11	87 ± 9

Same assay, conditions: pig, cellular viability (dehydrogenase activity) compared to the negative control, 1 µM, 48 h, CCK-8, n = 18

Compound	viability at 1 µM [%]
C[C@@H]1Cc2c(Cl)cc(C(=O)N[C@@H](Cc3ccccc3)C(=O)O)c(O)c2C(=O)O1 [OTA, Ochratoxin A]	92 ± 23
C[C@@H]1Cc2c(Cl)cc(C(=O)O)c(O)c2C(=O)O1 [OTα, ochratoxin α]	119 ± 18

Same assay, conditions: pig, cellular viability (dehydrogenase activity) compared to the negative control, 10 µM, 48 h, CCK-8, n = 18

Compound	viability at 10 µM [%]
C[C@@H]1Cc2c(Cl)cc(C(=O)N[C@@H](Cc3ccccc3)C(=O)O)c(O)c2C(=O)O1 [OTA, Ochratoxin A]	3 ± 4
C[C@@H]1Cc2c(Cl)cc(C(=O)O)c(O)c2C(=O)O1 [OTα, ochratoxin α]	100 ± 14
